Reference: patent US8609173B2, “Compositions comprising sweetness enhancers and methods of making them” (Senomyx Inc., priority 2008, dated 2013)

Assays:
[1] = Preparation of liquid solutions in food grade solvents (dissolution trials, Table 3); assay type: physicochemical; conditions: for solubility rate: propylene glycol
Protocol: Liquid compositions of 3-(4-amino-2,2-dioxide-1H-benzo[c][1,2,6]thiadiazin-5-yloxy)-2′,2′-dimethyl-N-propylpropanamide were prepared using a variety of different solvents (Table 3). It was discovered by increasing the pH of the solution with alkaline substance, such as alkali metal salt, one can increase the concentration level of 3-(4-amino-2,2-dioxide-1H-benzo[c][1,2,6]thiadiazin-5-yloxy)-2′,2′-dimethyl-N-propylpropanamide in solutions. Examples of suitable alkali metal salt include, but are not limited to, sodium bicarbonate, sodium carbonate, sodium hydroxide, and the like. In propylene glycol, sodium bicarbonate will raise pH from 7.8 to 8.5; the solubility rate of 3-(4-amino-2,2-dioxide-1H-benzo[c][1,2,6]thiadiazin-5-yloxy)-2′,2′-dimethyl-N-propylpropanamide will be increased from 0.5% to 1.0%.
• 1. Weigh a desired amount of compound and sodium bicarbonate. • 2. Calculate the volume of food grade solvent(s) (water, ethyl alcohol, isopropyl alcohol, butylenes glycol, propylene glycol, triacetin, glycerol, vegetable oils (soy, corn, peanut, persic, cottonseed, sesame), olive oil, fractionated coconut oil, neobee, tributyrin, mono and diglycerides, ethyl lactate, ethyl levulinate, butyl stearate, triethyl citrate, diethyl succinate, diethyl malonate, acetic acid, lactic acid, phosphoric acid, benzyl alcohol, tetrahydrofurfural alcohol, D-limonene, γ-valerolactone, butyrolactone, polyethylene glycol sorbitan monostearate (Tween®), etc. to add to the dry, weighed out compound to make a concentration of 1,000-50,000 ppm (0.1-5%). • 3. Pre heat the appropriate amount of solvent to 100 to 200° F. while stirring at 1,100 rpm on a hot plate using a stir bar. • 4. Add pre-weighed compound to heated solvent (when temperature reaches 100 to 200° F.). • 5. Continue heating solvent and inspect to insure complete dissolution, return to the hot plate if necessary. Preparation Procedure for Water as a Solvent:
Preparation Procedure of the Liquid Diluted Form (without Heat): • 1. Weigh desire amount of compound. • 2. Calculate the volume of food grade solvent(s) (water, ethanol, propylene glycol, triacetin, glycerol, neobee, DI water, phosphoric acid, lactic acid, olive oil) to add to the dry, weighed out compound to make a concentration of 1,000-50,000 ppm (0.1-5%). • 3. Stir solvent at 1,100 rpm on a hot plate using a stir bar. • 4. Add pre-weighed compound to solvent. • 5. Continue stirring and inspect to insure complete dissolution, return to the hot plate if necessary.

[2] = system: Panelists; test: Paired comparison taste test, flavored water; assay type: in vivo, Human
Protocol: Two sweetened water solutions were prepared and compared: Flavored Water with 9% Sucrose vs. Flavored Water with 6% Sucrose+2.3 ppm (6.49 μM) of 5-(neopentyloxy)-1H-benzo[c][1,2,6]thiadiazin-4-amino-2,2-dioxide.
Mixing procedures: Dissolve acid into the water using a Lightnin® blender, mix for 5 minutes. Add sugar and continue to mix until dissolved. Add flavors last. Dissolve Compound A into a 0.50% propylene glycol mixture, add last and mix for another 5 minutes. Procedure:
(§1) Panelists evaluated two sweetened water solutions in a paired comparison taste test procedure and were instructed to select the sweeter of the two samples. They perform a total of three paired comparison tests each containing the following samples: Flavored Water with 9% Sucrose vs. Flavored Water with 6% Sucrose+2.3 ppm (6.49 μM) 5-(neopentyloxy)-1H-benzo[c][1,2,6]thiadiazin-4-amino-2,2-dioxide.
Two sweetened water solutions were prepared and compared: Flavored Water with 9% Sucrose vs. Flavored Water with 6% Sucrose+2.44 ppm (6.49 μM) of 3-(4-amino-2,2-dioxide-1H-benzo[c][1,2,6]thiadiazin-5-yloxy)-2′,2′-dimethyl-N-propylpropanamide.
as §1, with “Sucrose+2.44” for “Sucrose+2.3”, “3-(4-amino-2,2-dioxide-1H-benzo[c][1,2,6]thiadiazin-5-yloxy)-2′,2′-dimethyl-N-propylpropanamide.” for “5-(neopentyloxy)-1H-benzo[c][1,2,6]thiadiazin-4-amino-2,2-dioxide.”

[3] = system: Panelists; test: Paired comparison human taste test, frosted flakes cereal; assay type: in vivo
Protocol: Frosted Flakes cereals were prepared using the following ingredients and evaluated for sweetness. The sugar frosting contained a reduced amount of sucrose (compared to the “100% sucrose” sugar coated flake cereal) and 15 ppm of 3-(4-amino-2,2-dioxide-1H-benzo[c][1,2,6]thiadiazin-5-yloxy)-2′,2′-dimethyl-N-propylpropanamide.
A Kitchen Aide mixer is equipped with a wire whip attachment and used for mixing sugar and tapioca dextrin. Mix for 5 minutes. Dissolve gum arabic in water using a magnetic stir bar and stir plate. Mix for 1 minute. Add the remaining dry ingredients and compound (if necessary) and heat until the solution reaches 230° F. for 1 minute. The compound was solubilized in ethanol to a 0.30% concentration level before adding to the syrup; this gave a better homogeneity throughout the syrup.
Place weighed amount of corn flakes in the tumbler. Add desired amount of syrup as soon as the syrup is ready. Tumble for 30 minutes while heating the flakes with a heat gun. Further dry the flakes in the convection oven for 200° F. for 50 minutes.
Panelists evaluated the two cereal samples in a paired comparison taste test procedure and were instructed to select the sweeter of the two samples.

[4] = system: Panelists; test: Paired comparison taste test, cola composition; assay type: in vivo, Human; conditions: for Sweetness comparison (conclusion): p>0.10; for Sample selected as sweeter by panelists, Total: vs Cola with 100% Sucrose, n = 39
Protocol: Cola compositions were prepared using the following ingredients and evaluated for sweetness and/or lingering taste.
The cola emulsion, above, contains the ingredients below:
Panelists evaluated two solutions in a paired comparison taste test procedure and were instructed to select the sweeter of the two samples.

[5] = 33% Reduced Sucrose Frosted Flakes + 15 ppm compound chosen, 14 panelists

CCCNC(=O)C(C)(C)COc1cccc2c1C(N)=NS(=O)(=O)N2 [3-(4-amino-2,2-dioxide-1H-benzo[c][1,2,6]thiadiazin-5-yloxy)-2′,2′-dimethyl-N-propylpropanamide]
Results (dissolution) ([1]; Ethanol, 1.0%, Ambient/over 30 minutes): Did not go into solution
Results (dissolution) ([1]; Glycerol, 0.1%, Ambient/over 30 minutes): Did not go into solution
Results (dissolution) ([1]; Lactic Acid, 1.0%, Ambient/over 30 minutes): Did not go into solution
Results (dissolution) ([1]; Neobee, 0.1%, 185° F./over 30 minutes): Did not go into solution
Results (dissolution) ([1]; Neobee, 0.1%, Ambient/over 30 minutes): Did not go into solution
Results (dissolution) ([1]; Olive Oil (Star Original), 0.1%, 150° F./over 30 minutes): Did not go into solution
Results (dissolution) ([1]; Olive Oil (Star Original), 0.1%, Ambient/over 30 minutes): Did not go into solution
Results (dissolution) ([1]; Phosphoric acid, 0.1%, Ambient/over 30 minutes): Did not go into solution
Results (dissolution) ([1]; Propylene Glycol, 0.3%, Ambient/over 30 minutes): Did not go into solution
Results (dissolution) ([1]; Propylene Glycol, 0.5%, Ambient/over 30 minutes): Did not go into solution
Results (dissolution) ([1]; Propylene Glycol, 1.0%, Ambient/over 30 minutes): Did not go into solution
Results (dissolution) ([1]; Triacetin, 0.1%, Ambient/over 30 minutes): Did not go into solution
concentration obtained ([1]; in ethanol): about 0.1 wt. %
concentration readily obtained ([1]; in propylene glycol): ≤ 0.5%
concentration obtained ([1]; in water): 10 ppm
solubility rate ([1]; pH 7.8, before sodium bicarbonate): 0.5%
solubility rate ([1]; sodium bicarbonate raises pH to 8.5): 1.0%
Sample selected as sweeter by panelists, Total ([2]; Flavored Water with 6% Sucrose + 2.44 ppm (6.49 μM) compound chosen, vs 9% Sucrose, n = 42): 20
Sweetness comparison (conclusion) ([2]; Flavored Water with 6% Sucrose + 2.44 ppm (6.49 μM) compound vs 9% Sucrose, p>0.10): not significantly different in sweetness
Sample selected as sweeter by panelists, Test 1 [3, 5]: 6
Sample selected as sweeter by panelists, Test 2 [3, 5]: 9
Sample selected as sweeter by panelists, Test 3 [3, 5]: 9
Sample selected as sweeter by panelists, Total ([3]; 33% Reduced Sucrose Frosted Flakes + 15 ppm compound chosen, n = 42): 24
Sweetness comparison (conclusion) ([3]; 33% Reduced Sucrose Frosted Flakes + 15 ppm compound vs 100% Sucrose Frosted Flakes): not significantly different in sweetness
Sweetness comparison (conclusion) ([4]; 60% sucrose cola + 3 ppm (8.47 μM) compound vs 100% sucrose cola): no significant difference in sweetness
Sweetness comparison (conclusion) ([4]; 66% sucrose cola + 3.19 ppm (8.47 μM) compound vs 100% sucrose cola): no significant difference in sweetness
Sample selected as sweeter by panelists, Total ([4]; Cola with 60% Sucrose + 3 ppm (8.47 μM) compound chosen): 18
Sample selected as sweeter by panelists, Total ([4]; Cola with 66% Sucrose + 3.19 ppm (8.47 μM) compound chosen): 22
Sweetness comparison (statement) ([4]; cola with reduced sucrose + 3 ppm or 3.19 ppm compound vs 100% sucrose cola): approximately the same sweetness
